≈ marks a conversion by molar mass, not a printed value. Read-outs that look alike come from different tables or passages of the source.
Tests used:
[1] = system: Staphylococcus aureus ATCC BAA-976; assay: MIC, broth microdilution, MDR/BPSA reference strain; assay type: cell-based; conditions: ATCCBAA976; Staphylococcus aureus ATCC BAA-976; read-out: MIC MDR/BPSA
Excerpt: These strains included susceptible, multidrug-resistant, and biofilm-producing strains of S. epidermidis and S. aureus (MSSE, MDR/BPSE, and MDR/BPSA, respectively). The cornerstone antibiotic linezolid served as a positive control (Table 1). The impact of structural modifications at the aryloxy fragment and the aromatic moiety bound to the propyl linker on the inhibitory activity was initially investigated. […] Further optimization focused on evaluating the impact of the type of substituent and its position on the arylsulfonamide fragment’s activity.
(§1) 2 Biological assay protocols
(§2) Microbiological tests were carried out under aseptic conditions in a laminar chamber of the 2nd […]
(§3) (BioTectum 1.2, Alchem Poland). The assessment of antimicrobial activity was carried out for final compounds in the form of free bases, soluble in DMSO (Merck, Germany), at the initial […]
(§4) concentration of 1 mg/mL. […]
were provided by Cayman Chemical, USA.
The activity of all newly synthesized compounds was tested in vitro on a panel of selected reference strains from the American Type Culture Collection (ATCC) of Gram-positive […]
(§5) 2.2 Effect of evaluated compounds on planktonic cells
(§6) The susceptibility of three reference bacterial strains (Staphylococcus epidermidis ATCC […]
(§7) Table S1) and 81 clinical MDR S. epidermidis (Table S2) to the tested compounds was assessed by determining the MIC value (Minimal Inhibitory Concentration) by microdilution in a liquid medium in 96-well flat-bottom cell culture plates (Nest Biotechnology Scientific, USA). The antibacterial properties of the compo unds were tested in the concentration range from 50 µg/mL to 0.1 µg/mL by making a series of double dilutions of the compound in liquid Mueller -Hinton II Broth Cation Adjusted (MHB II, BBL TM, USA) according to the European Committee on […]
(§8) Antimicrobial Susceptibility Testing guidelines (EUCAST).2,3 The determinations were performed twice. The MIC50 and MIC90 values were determined for each of the tested

[2] = system: clinical MDR Staphylococcus epidermidis isolates; assay: MIC, broth microdilution, 81 clinical MDR strains; assay type: cell-based; conditions: Staphylococcus epidermidis
Description: as §1, §2, §3, §4
were provided by Cayman Chemical, USA. […]
The antibacterial activity of selected compounds was also tested on a panel of 81 unrelated, multidrug -resistant clinical strains of Staphylococcus epidermidis from the own collection of the Department of Pharmaceutical Microbiology of the Jagiellonian University Medical College.
as §5, §6, §7, §8

`O=S(=O)(NC1CCN(CCC(Oc2ccc(C(F)(F)F)cc2)c2cccs2)CC1)c1cccc(Br)c1` (stereo not shown) [Compound 18] gave an MIC [1] of 50 µg/mL (≈ 82.8 µM), an MIC ([2]; clinical strain 1 (Table S2), read-out: MIC) of 0.8 µg/mL (≈ 1.33 µM) and an MIC ([2]; clinical strain 2 (Table S2), read-out: MIC) of 3.12 µg/mL (≈ 5.18 µM). The MIC ([2]; clinical strain 3 (Table S2), read-out: MIC) was 6.25 µg/mL (≈ 10.4 µM), the MIC ([2]; clinical strain 4 (Table S2), read-out: MIC) was 50 µg/mL (≈ 82.8 µM) and the MIC ([2]; clinical strain 5 (Table S2), read-out: MIC) was 1.6 µg/mL (≈ 2.65 µM). For the same compound, the MIC ([2]; clinical strain 6 (Table S2), read-out: MIC) was 12.5 µg/mL (≈ 20.7 µM), the MIC ([2]; clinical strain 7 (Table S2), read-out: MIC) was 25 µg/mL (≈ 41.4 µM) and the MIC ([2]; clinical strain 8 (Table S2), read-out: MIC) was 3.12 µg/mL (≈ 5.18 µM). It also gave an MIC ([2]; clinical strain 9 (Table S2), read-out: MIC) of 50 µg/mL (≈ 82.8 µM), an MIC ([2]; clinical strain 10 (Table S2), read-out: MIC) of 50 µg/mL (≈ 82.8 µM) and an MIC ([2]; clinical strain 11 (Table S2), read-out: MIC) of 6.25 µg/mL (≈ 10.4 µM). It also gave an MIC ([2]; clinical strain 12 (Table S2), read-out: MIC) of 12.5 µg/mL (≈ 20.7 µM), an MIC ([2]; clinical strain 13 (Table S2), read-out: MIC) of 12.5 µg/mL (≈ 20.7 µM) and an MIC ([2]; clinical strain 14 (Table S2), read-out: MIC) of 50 µg/mL (≈ 82.8 µM). The MIC ([2]; clinical strain 15 (Table S2), read-out: MIC) was 50 µg/mL (≈ 82.8 µM), the MIC ([2]; clinical strain 16 (Table S2), read-out: MIC) was 50 µg/mL (≈ 82.8 µM) and the MIC ([2]; clinical strain 17 (Table S2), read-out: MIC) was 12.5 µg/mL (≈ 20.7 µM). It also gave an MIC ([2]; clinical strain 18 (Table S2), read-out: MIC) of 50 µg/mL (≈ 82.8 µM), an MIC ([2]; clinical strain 19 (Table S2), read-out: MIC) of 6.25 µg/mL (≈ 10.4 µM) and an MIC ([2]; clinical strain 20 (Table S2), read-out: MIC) of 3.12 µg/mL (≈ 5.18 µM). For the same compound, the MIC ([2]; clinical strain 21 (Table S2), read-out: MIC) was 3.12 µg/mL (≈ 5.18 µM), the MIC ([2]; clinical strain 22 (Table S2), read-out: MIC) was 3.12 µg/mL (≈ 5.18 µM) and the MIC ([2]; clinical strain 23 (Table S2), read-out: MIC) was 0.8 µg/mL (≈ 1.33 µM). It also gave an MIC ([2]; clinical strain 24 (Table S2), read-out: MIC) of 3.12 µg/mL (≈ 5.18 µM), an MIC ([2]; clinical strain 25 (Table S2), read-out: MIC) of 6.25 µg/mL (≈ 10.4 µM) and an MIC ([2]; clinical strain 26 (Table S2), read-out: MIC) of 50 µg/mL (≈ 82.8 µM). It also gave an MIC ([2]; clinical strain 27 (Table S2), read-out: MIC) of 0.8 µg/mL (≈ 1.33 µM), an MIC ([2]; clinical strain 28 (Table S2), read-out: MIC) of 50 µg/mL (≈ 82.8 µM) and an MIC ([2]; clinical strain 29 (Table S2), read-out: MIC) of 50 µg/mL (≈ 82.8 µM). The MIC ([2]; clinical strain 30 (Table S2), read-out: MIC) was 50 µg/mL (≈ 82.8 µM), the MIC ([2]; clinical strain 31 (Table S2), read-out: MIC) was 50 µg/mL (≈ 82.8 µM) and the MIC ([2]; clinical strain 32 (Table S2), read-out: MIC) was 50 µg/mL (≈ 82.8 µM). For the same compound, the MIC ([2]; clinical strain 33 (Table S2), read-out: MIC) was 50 µg/mL (≈ 82.8 µM), the MIC ([2]; clinical strain 34 (Table S2), read-out: MIC) was 50 µg/mL (≈ 82.8 µM) and the MIC ([2]; clinical strain 35 (Table S2), read-out: MIC) was 1.6 µg/mL (≈ 2.65 µM). It also gave an MIC ([2]; clinical strain 36 (Table S2), read-out: MIC) of 50 µg/mL (≈ 82.8 µM), an MIC ([2]; clinical strain 37 (Table S2), read-out: MIC) of 50 µg/mL (≈ 82.8 µM) and an MIC ([2]; clinical strain 38 (Table S2), read-out: MIC) of 50 µg/mL (≈ 82.8 µM). The MIC ([2]; clinical strain 39 (Table S2), read-out: MIC) was 50 µg/mL (≈ 82.8 µM), the MIC ([2]; clinical strain 40 (Table S2), read-out: MIC) was 50 µg/mL (≈ 82.8 µM) and the MIC ([2]; clinical strain 41 (Table S2), read-out: MIC) was 6.25 µg/mL (≈ 10.4 µM). The MIC ([2]; clinical strain 42 (Table S2), read-out: MIC) was 1.6 µg/mL (≈ 2.65 µM), the MIC ([2]; clinical strain 43 (Table S2), read-out: MIC) was 1.6 µg/mL (≈ 2.65 µM) and the MIC ([2]; clinical strain 44 (Table S2), read-out: MIC) was 50 µg/mL (≈ 82.8 µM). For the same compound, the MIC ([2]; clinical strain 45 (Table S2), read-out: MIC) was 50 µg/mL (≈ 82.8 µM), the MIC ([2]; clinical strain 46 (Table S2), read-out: MIC) was 50 µg/mL (≈ 82.8 µM) and the MIC ([2]; clinical strain 47 (Table S2), read-out: MIC) was 50 µg/mL (≈ 82.8 µM). For the same compound, the MIC ([2]; clinical strain 48 (Table S2), read-out: MIC) was 50 µg/mL (≈ 82.8 µM), the MIC ([2]; clinical strain 49 (Table S2), read-out: MIC) was 50 µg/mL (≈ 82.8 µM) and the MIC ([2]; clinical strain 50 (Table S2), read-out: MIC) was 50 µg/mL (≈ 82.8 µM). For the same compound, the MIC ([2]; clinical strain 51 (Table S2), read-out: MIC) was 50 µg/mL (≈ 82.8 µM), the MIC ([2]; clinical strain 52 (Table S2), read-out: MIC) was 50 µg/mL (≈ 82.8 µM) and the MIC ([2]; clinical strain 53 (Table S2), read-out: MIC) was 50 µg/mL (≈ 82.8 µM). It also gave an MIC ([2]; clinical strain 54 (Table S2), read-out: MIC) of 50 µg/mL (≈ 82.8 µM), an MIC ([2]; clinical strain 55 (Table S2), read-out: MIC) of 50 µg/mL (≈ 82.8 µM) and an MIC ([2]; clinical strain 56 (Table S2), read-out: MIC) of 50 µg/mL (≈ 82.8 µM). It also gave an MIC ([2]; clinical strain 57 (Table S2), read-out: MIC) of 50 µg/mL (≈ 82.8 µM), an MIC ([2]; clinical strain 58 (Table S2), read-out: MIC) of 50 µg/mL (≈ 82.8 µM) and an MIC ([2]; clinical strain 59 (Table S2), read-out: MIC) of 50 µg/mL (≈ 82.8 µM). It also gave an MIC ([2]; clinical strain 60 (Table S2), read-out: MIC) of 50 µg/mL (≈ 82.8 µM), an MIC ([2]; clinical strain 61 (Table S2), read-out: MIC) of 50 µg/mL (≈ 82.8 µM) and an MIC ([2]; clinical strain 62 (Table S2), read-out: MIC) of 50 µg/mL (≈ 82.8 µM). The MIC ([2]; clinical strain 63 (Table S2), read-out: MIC) was 50 µg/mL (≈ 82.8 µM), the MIC ([2]; clinical strain 64 (Table S2), read-out: MIC) was 50 µg/mL (≈ 82.8 µM) and the MIC ([2]; clinical strain 65 (Table S2), read-out: MIC) was 6.25 µg/mL (≈ 10.4 µM). For the same compound, the MIC ([2]; clinical strain 66 (Table S2), read-out: MIC) was 3.12 µg/mL (≈ 5.18 µM), the MIC ([2]; clinical strain 67 (Table S2), read-out: MIC) was 50 µg/mL (≈ 82.8 µM) and the MIC ([2]; clinical strain 68 (Table S2), read-out: MIC) was 50 µg/mL (≈ 82.8 µM). For the same compound, the MIC ([2]; clinical strain 69 (Table S2), read-out: MIC) was 50 µg/mL (≈ 82.8 µM), the MIC ([2]; clinical strain 70 (Table S2), read-out: MIC) was 50 µg/mL (≈ 82.8 µM) and the MIC ([2]; clinical strain 71 (Table S2), read-out: MIC) was 50 µg/mL (≈ 82.8 µM). It also gave an MIC ([2]; clinical strain 72 (Table S2), read-out: MIC) of 50 µg/mL (≈ 82.8 µM), an MIC ([2]; clinical strain 73 (Table S2), read-out: MIC) of 50 µg/mL (≈ 82.8 µM) and an MIC ([2]; clinical strain 74 (Table S2), read-out: MIC) of 50 µg/mL (≈ 82.8 µM). For the same compound, the MIC ([2]; clinical strain 75 (Table S2), read-out: MIC) was 50 µg/mL (≈ 82.8 µM), the MIC ([2]; clinical strain 76 (Table S2), read-out: MIC) was 50 µg/mL (≈ 82.8 µM) and the MIC ([2]; clinical strain 77 (Table S2), read-out: MIC) was 0.8 µg/mL (≈ 1.33 µM). It also gave an MIC ([2]; clinical strain 78 (Table S2), read-out: MIC) of 50 µg/mL (≈ 82.8 µM), an MIC ([2]; clinical strain 79 (Table S2), read-out: MIC) of 50 µg/mL (≈ 82.8 µM) and an MIC ([2]; clinical strain 80 (Table S2), read-out: MIC) of 50 µg/mL (≈ 82.8 µM). For the same compound, the MIC ([2]; clinical strain 81 (Table S2), read-out: MIC) was 3.12 µg/mL (≈ 5.18 µM), the MIC ([2]; mean of MIC values against clinical MDR-SE isolates, read-out: mean MIC) was 35.2 µg/mL (≈ 58.3 µM) and the MIC50 ([2]; 81 clinical strains, concentration inhibiting growth of 50% clinical isolates) was 50 µg/mL (≈ 82.8 µM). It also gave an MIC90 ([2]; 81 clinical strains, concentration inhibiting growth of 90% of clinical isolates) of 50 µg/mL (≈ 82.8 µM).
